TGI data for 14 compounds are collected here from PubChem BioAssay (NCI).

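Each compound was tested at five concentrations against cells in 96-well plates for 48 hours. TGI is the concentration that stops growth completely.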 Where a SMILES comes first, the peptide text is derived from it. [ ]: non-standard residue; d: D form. The star is where a group is joined. ξ: configuration not given here. ξPhe(4-NO2) = NC(Cc1ccc([N+](=O)[O-])cc1)C(=O)O; Boc = CC(C)(C)OC(=O)*

Some test systems named below: 786-0 renal; A498 renal; HCT-116 colon; HOP-62 NSCLC; OVCAR-3 ovarian; OVCAR-4 ovarian; RXF 393 renal; SF-295 CNS; SK-MEL-5 melanoma.
Holding throughout (experiment): growth of human tumour cells (NCI), 48 h

For the compound `COC(=O)C1(Cc2ccc(C)cc2)Cc2c(C)cccc2C1=O` (stereo not given), the TGI was 76.8 µM with 786-0 renal; 41.8 µM with A498 renal; 31.9 µM with HCT-116 colon; 65.5 µM in the assay on HOP-62 NSCLC; 34.5 µM in the assay on OVCAR-3 ovarian; 98.9 µM with OVCAR-4 ovarian. Also, the results for the TGI in the assay with RXF 393 renal, in the assay on SF-295 CNS and with SK-MEL-5 melanoma were 40.5 µM, above 100 µM and 26.3 µM, respectively.
As to `CC1OC(OC2C[C@](O)(C(=O)CBr)Cc3c(O)c4c(c(O)c32)C(=O)c2ccccc2C4=O)C(F)C(O)C1O` (stereo not given in full), the TGI with 786-0 renal is above 59.5 µM; with A498 renal it was 30.9 µM; in the assay with HCT-116 colon, above 68 µM; in the assay with HOP-62 NSCLC, 66 µM; in the assay with OVCAR-3 ovarian, 42.9 µM; in the assay with OVCAR-4 ovarian, 97.9 µM. Besides, the TGI was determined as 35.6 µM with RXF 393 renal, 27.5 µM in the assay on SF-295 CNS and 24.4 µM in the assay on SK-MEL-5 melanoma.
Take `COc1ncc(C#CC(=O)c2ccccc2)c(OC)n1`: the TGI came out at 4.2 µM in the assay on 786-0 renal; 32.4 µM with A498 renal; 10.1 µM with HCT-116 colon; 42 µM in the assay on HOP-62 NSCLC; 10.3 µM in the assay with OVCAR-3 ovarian; 12.9 µM with OVCAR-4 ovarian. The TGI turned out to be 3.79 µM in the assay with RXF 393 renal, 36 µM in the assay on SF-295 CNS and 6.68 µM with SK-MEL-5 melanoma.
As to `Brc1ccc(C2CC3(c4ccccc4)ON=C(c4ccccc4)N3c3ccccc3S2)cc1` (stereo not given), the TGI in the assay on 786-0 renal, with A498 renal, in the assay on HCT-116 colon, in the assay on HOP-62 NSCLC, in the assay on OVCAR-3 ovarian and in the assay with OVCAR-4 ovarian was above 100 µM each time. The TGI in the assay on RXF 393 renal, with SF-295 CNS and in the assay on SK-MEL-5 melanoma was above 100 µM each time.
With `Nc1nc(Cl)c(C=O)c(NCC2(CO)CCC2)n1`, the TGI in the assay on 786-0 renal is above 100 µM; in the assay on A498 renal, 67.7 µM; with HCT-116 colon, 40.6 µM; with HOP-62 NSCLC, 65.1 µM; in the assay on OVCAR-3 ovarian it was 42.9 µM; with OVCAR-4 ovarian it was 32.9 µM. Also, the TGI in the assay with RXF 393 renal amounted to 50.1 µM; in the assay on SF-295 CNS, 67.6 µM; in the assay with SK-MEL-5 melanoma, 31.4 µM.
In the case of `Fc1cc2nc3n(c2cc1F)C(c1c(Cl)cccc1Cl)SC3` (stereo not given), the TGI came out at 28.3 µM with 786-0 renal; 34.6 µM in the assay with A498 renal; 25.2 µM in the assay on HCT-116 colon; 29.6 µM with HOP-62 NSCLC; 25.7 µM in the assay on OVCAR-3 ovarian; 30.1 µM with OVCAR-4 ovarian. Moreover, the TGI in the assay with RXF 393 renal is 28.5 µM; with SF-295 CNS, 26.2 µM; in the assay on SK-MEL-5 melanoma, 20.4 µM.
With `COC1C(OC(C)=O)CC(=O)OC(C)C/C=C/C=C\C(O)C(C)CC(CC=O)C1OC1OC(C)C(OC2CC(C)(O)C(OC(=O)CC(C)C)C(C)O2)C(N(C)C)C1O` (stereo not given), the TGI in the assay on 786-0 renal, in the assay on A498 renal, in the assay with HCT-116 colon, with HOP-62 NSCLC, with OVCAR-3 ovarian and in the assay on OVCAR-4 ovarian was above 100 µM in each case. Also, the TGI in the assay on RXF 393 renal, in the assay with SF-295 CNS and in the assay with SK-MEL-5 melanoma was above 100 µM in each case.
With `COc1ccc2c(c1)OC1c3ccccc3OCC21` (stereo not given), the TGI with 786-0 renal, in the assay with A498 renal, in the assay on HCT-116 colon, in the assay with HOP-62 NSCLC, in the assay with OVCAR-3 ovarian and in the assay on OVCAR-4 ovarian was above 100 µM in each case. Besides, the TGI in the assay with RXF 393 renal, with SF-295 CNS and in the assay on SK-MEL-5 melanoma was above 100 µM in each case.
Consider `Cn1c(O)c(C=Nc2ccc(Cl)cc2Cl)c(=O)n(C)c1=O`, for which the TGI in the assay on 786-0 renal, in the assay with A498 renal, with HCT-116 colon, with HOP-62 NSCLC, with OVCAR-3 ovarian and with OVCAR-4 ovarian was above 100 µM throughout. Also, the TGI with RXF 393 renal, in the assay with SF-295 CNS and in the assay with SK-MEL-5 melanoma was above 100 µM each time.
Consider `FC(F)(F)C1(c2ccccc2)SCc2nc3ccccc3n21` (stereo not given), for which the TGI in the assay on 786-0 renal, with A498 renal, in the assay with HCT-116 colon, with HOP-62 NSCLC, in the assay with OVCAR-3 ovarian and with OVCAR-4 ovarian was above 100 µM in each case. For the same compound, the TGI in the assay on RXF 393 renal, in the assay on SF-295 CNS and with SK-MEL-5 melanoma was above 100 µM throughout.
For the compound `CC(C)C1=CC23CCC4C(C)(C(=O)O)CCCC4(C)C2CC1C1C(=O)N(c2cccc(N4C(=O)C5C6CC7C8(C)CCCC(C)(C(=O)O)C8CCC7(C=C6C(C)C)C5C4=O)c2)C(=O)C13` (stereo not given), the TGI is above 100 µM in the assay on 786-0 renal; 26.7 µM in the assay with A498 renal; 21.3 µM with HCT-116 colon; 25.2 µM in the assay with HOP-62 NSCLC; 25.7 µM in the assay on OVCAR-3 ovarian; above 100 µM with OVCAR-4 ovarian. In addition, the figures for the TGI in the assay on RXF 393 renal and with SK-MEL-5 melanoma were 27 µM and 28.6 µM, respectively.
With `COc1ccc(Br)c(C=Nc2cccc3cc(OC)c(OC)cc23)c1`, the TGI is above 100 µM in the assay with 786-0 renal; above 100 µM with A498 renal; 34.2 µM in the assay on HCT-116 colon; above 100 µM in the assay on HOP-62 NSCLC; above 100 µM in the assay with OVCAR-3 ovarian; above 100 µM in the assay with OVCAR-4 ovarian. Besides, the TGI in the assay with RXF 393 renal was above 100 µM; in the assay on SF-295 CNS it was above 100 µM; with SK-MEL-5 melanoma, above 94.9 µM.
Consider `C/C(=N\Nc1nc2ccccc2o1)c1cc2ccccc2cn1`, for which the TGI was 6.61 µM in the assay on 786-0 renal; above 100 µM in the assay on A498 renal; 15.8 µM with HCT-116 colon; 15.6 µM in the assay on HOP-62 NSCLC; 13.2 µM in the assay on OVCAR-3 ovarian; 8.25 µM in the assay on OVCAR-4 ovarian. Moreover, the TGI was found to be 4.87 µM with RXF 393 renal, 4.56 µM with SF-295 CNS and 22.5 µM in the assay with SK-MEL-5 melanoma.
As for `CCNC(=O)CNC(=O)C(Cc1ccc([N+](=O)[O-])cc1)NC(=O)OC(C)(C)C` (stereo not given) (Boc-[ξPhe(4-NO2)]-Gly-NHEt), the TGI with 786-0 renal, in the assay on A498 renal, in the assay on HCT-116 colon, in the assay on HOP-62 NSCLC, with OVCAR-3 ovarian and with OVCAR-4 ovarian was above 100 µM throughout. Also, the TGI in the assay with RXF 393 renal, with SF-295 CNS and with SK-MEL-5 melanoma was above 100 µM each time.
